Test results published in the NIST ThermoML archive (doi:10.1021/je020120h).
Numbers after ± are expanded uncertainties.

Key:
[1] = 298.15 K; 101.33 kPa; Liquid; Vibrating tube method
[2] = excess molar enthalpy (molar enthalpy of mixing); xn = mol fraction of the nth substance listed; conditions: 298.15 K, 101.3 kPa, Liquid, Flow calorimetry

CCc1ccccc1 [ethylbenzene]
Conditions	mass density [kg/m3]
[1]	862.5 ± 0.1

CCc1ccccc1 [ethylbenzene] + COC(=O)OC
[2]
Conditions	excess molar enthalpy [kcal/mol]
x2 = 0.0501	0.0215 ± 0.000526
x2 = 0.1003	0.0489 ± 0.0011
x2 = 0.149	0.0639 ± 0.00141
x2 = 0.201	0.0848 ± 0.00186
x2 = 0.2512	0.104 ± 0.00227
x2 = 0.2998	0.119 ± 0.00263
x2 = 0.3525	0.133 ± 0.00287
x2 = 0.4005	0.143 ± 0.00311
x2 = 0.4524	0.15 ± 0.00335
x2 = 0.5025	0.153 ± 0.00335
x2 = 0.5507	0.153 ± 0.00335
x2 = 0.602	0.151 ± 0.00335
x2 = 0.6513	0.145 ± 0.00311
x2 = 0.7011	0.135 ± 0.00287
x2 = 0.7512	0.123 ± 0.00263
x2 = 0.8012	0.106 ± 0.00232
x2 = 0.8513	0.0865 ± 0.00189
x2 = 0.9012	0.0623 ± 0.00139
x2 = 0.9509	0.0335 ± 0.000789

Cc1ccccc1C [1,2-dimethylbenzene] + COC(=O)OC
[2]
Conditions	excess molar enthalpy [kcal/mol]
x2 = 0.0511	0.0266 ± 0.000645
x2 = 0.1006	0.0553 ± 0.00124
x2 = 0.1503	0.0795 ± 0.00174
x2 = 0.2016	0.0932 ± 0.00203
x2 = 0.2513	0.106 ± 0.00232
x2 = 0.3024	0.125 ± 0.00263
x2 = 0.3519	0.137 ± 0.00287
x2 = 0.3998	0.147 ± 0.00311
x2 = 0.4514	0.153 ± 0.00335
x2 = 0.5013	0.155 ± 0.00335
x2 = 0.5519	0.153 ± 0.00335
x2 = 0.6007	0.149 ± 0.00311
x2 = 0.6502	0.142 ± 0.00311
x2 = 0.7002	0.132 ± 0.00287
x2 = 0.7504	0.12 ± 0.00263
x2 = 0.8008	0.104 ± 0.00227
x2 = 0.8513	0.0841 ± 0.00184
x2 = 0.8998	0.0605 ± 0.00134
x2 = 0.9501	0.0322 ± 0.000765

Cc1cccc(C)c1 [1,3-dimethylbenzene] + COC(=O)OC
[2]
Conditions	excess molar enthalpy [kcal/mol]
x2 = 0.0502	0.0299 ± 0.000717
x2 = 0.1006	0.0579 ± 0.00129
x2 = 0.151	0.0824 ± 0.00182
x2 = 0.2014	0.102 ± 0.00222
x2 = 0.2517	0.119 ± 0.00263
x2 = 0.3004	0.133 ± 0.00287
x2 = 0.3503	0.144 ± 0.00311
x2 = 0.4014	0.153 ± 0.00335
x2 = 0.4506	0.158 ± 0.00335
x2 = 0.5007	0.16 ± 0.00359
x2 = 0.5515	0.16 ± 0.00335
x2 = 0.6004	0.156 ± 0.00335
x2 = 0.6522	0.149 ± 0.00311
x2 = 0.7018	0.14 ± 0.00311
x2 = 0.7517	0.127 ± 0.00263
x2 = 0.8017	0.109 ± 0.00239
x2 = 0.8517	0.0878 ± 0.00194
x2 = 0.9015	0.063 ± 0.00141
x2 = 0.9509	0.0337 ± 0.000789

CCOC(=O)c1ccccc1 [ethyl benzoate]
Conditions	mass density [kg/m3]
[1]	1041.3 ± 0.5

Cc1ccccc1C [1,2-dimethylbenzene]
Conditions	mass density [kg/m3]
[1]	875 ± 0.5

COC(=O)OC [dimethyl carbonate]
Conditions	mass density [kg/m3]
[1]	1063.1 ± 0.5

Cc1ccc(C)cc1 [1,4-dimethylbenzene] + COC(=O)OC
[2]
Conditions	excess molar enthalpy [kcal/mol]
x2 = 0.0504	0.0295 ± 0.000693
x2 = 0.101	0.0543 ± 0.00122
x2 = 0.1515	0.0837 ± 0.00184
x2 = 0.202	0.102 ± 0.00222
x2 = 0.2529	0.119 ± 0.00263
x2 = 0.3012	0.133 ± 0.00287
x2 = 0.3512	0.145 ± 0.00311
x2 = 0.4022	0.153 ± 0.00335
x2 = 0.4515	0.159 ± 0.00335
x2 = 0.5016	0.161 ± 0.00359
x2 = 0.5524	0.16 ± 0.00359
x2 = 0.6013	0.156 ± 0.00335
x2 = 0.6507	0.149 ± 0.00311
x2 = 0.7004	0.139 ± 0.00311
x2 = 0.7503	0.125 ± 0.00263
x2 = 0.8003	0.109 ± 0.00237
x2 = 0.8502	0.0879 ± 0.00194
x2 = 0.9018	0.0621 ± 0.00139
x2 = 0.9511	0.033 ± 0.000765

CCOC(=O)c1ccccc1 [ethyl benzoate] + COC(=O)OC
[2]
Conditions	excess molar enthalpy [kcal/mol]
x2 = 0.05	0.0138 ± 0.000382
x2 = 0.0999	0.0284 ± 0.000669
x2 = 0.1497	0.0413 ± 0.000956
x2 = 0.1991	0.0541 ± 0.00122
x2 = 0.2482	0.0641 ± 0.00143
x2 = 0.2984	0.073 ± 0.00163
x2 = 0.3495	0.0804 ± 0.00177
x2 = 0.4012	0.0861 ± 0.00189
x2 = 0.4503	0.09 ± 0.00198
x2 = 0.4998	0.0919 ± 0.00201
x2 = 0.5495	0.0924 ± 0.00203
x2 = 0.599	0.0911 ± 0.00198
x2 = 0.6506	0.0872 ± 0.00191
x2 = 0.6993	0.0831 ± 0.00182
x2 = 0.7495	0.075 ± 0.00165
x2 = 0.8007	0.0655 ± 0.00146
x2 = 0.8507	0.0533 ± 0.0012
x2 = 0.8993	0.0387 ± 0.000884
x2 = 0.9498	0.0207 ± 0.000526

Cc1ccc(C)cc1 [1,4-dimethylbenzene]
Conditions	mass density [kg/m3]
[1]	856.7 ± 0.4

Cc1cccc(C)c1 [1,3-dimethylbenzene]
Conditions	mass density [kg/m3]
[1]	860 ± 0.5
